Experimental data published in patent US9029420B2, “Agomelatine and pharmaceutical compositions thereof” (Tianjin Taipu Pharmaceutical Science & Technology …, priority 2009, dated 2015).

Assay: pharmacological and pharmacodynamic studies
Details: no method or data given

COc1ccc2cccc(CCNC(C)=O)c2c1 [agomelatine crystal, N-[2-(7-methoxy-1-naphthyl)-ethyl]acetamide]
therapeutic effects for central neural system and microcirculation: good therapeutic effects for central neural system and microcirculation
